The values below come from patent publication US20020004218A1, “Methods for identifying compounds useful for inhibiting geranylgeranyl diphosphate synthase” (priority 2000, published 2002).

In test [1] the target is T1, rat liver squalene synthase (Rattus norvegicus, UniProt Q02769).
T1 construct: host or cells: rat liver
T1 sequence (Q02769 1-416): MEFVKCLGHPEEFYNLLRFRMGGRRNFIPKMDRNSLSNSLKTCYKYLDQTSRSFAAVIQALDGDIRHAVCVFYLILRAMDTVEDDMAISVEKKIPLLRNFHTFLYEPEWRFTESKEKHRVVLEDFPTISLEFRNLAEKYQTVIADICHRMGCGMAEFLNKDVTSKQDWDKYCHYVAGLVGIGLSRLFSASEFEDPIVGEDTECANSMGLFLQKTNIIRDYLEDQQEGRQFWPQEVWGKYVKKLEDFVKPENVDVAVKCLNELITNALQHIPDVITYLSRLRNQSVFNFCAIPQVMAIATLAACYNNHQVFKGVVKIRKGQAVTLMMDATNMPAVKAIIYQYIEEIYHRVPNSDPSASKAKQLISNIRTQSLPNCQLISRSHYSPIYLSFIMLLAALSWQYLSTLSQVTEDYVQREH
As to conditions: cited from earlier work.

In test [2] the test system is osteoclasts. As to conditions: osteoclasts in culture; cited from earlier work.
Test [3] concerns sterol synthesis. As to conditions: incorporation of 14C-MVA into sterol, rat liver cell-free system; read-out: IC50, block of sterol synthesis; cited from earlier work.
Test [4] concerns geranylgeranyl diphosphate synthase. The source says:
The present invention relates to a method for identifying inhibitors of geranylgeranyl diphosphate synthase comprising:
a). contacting a putative geranylgeranyl diphosphate synthase inhibitor with a geranylgeranyl diphosphate synthase assay solution, and
b). determining, i.e. comparing, the geranylgeranyl diphosphate synthase activity of said assay solution with a geranylgeranyl diphosphate synthase assay solution not contacted with said putative inhibitor, in order to determine the amount of inhibition.
In these methods the geranylgeranyl diphosphatesynthase assay solution is typically an aqueous solution. The inhibition effect is measured with respect to the catalysis of an appropriate reaction that one of ordinary skill in the art can select. Reaction times, conditions, quatitation methods, and other variables are chosen for convenience to obtain a readily quantitated system for measuring the inhibition of the geranylgeranyl diphosphate synthase.
Additionally, in these methods of identifying inhibitors of geranylgeranyl diphosphate synthase, the enzyme can be used in a crude, unpurified state, from various tissues sources, e.g., liver. Alternatively, the enzyme can be used in a partially purified state, a purified state, or as an expressed form of the enzyme, e.g., the expressed human enzyme.

By IC50 is commonly meant the midpoint of a concentration-inhibition curve.

Turning to `O=P(O)(O)C(O)(CCN1CCCC1)P(=O)(O)O` [EB 1053, 1-hydroxy-3-(1-pyrrolidinyl)-propylidene-1,1-bisphosphonic acid], the “inhibition of squalene synthase” value in test [1] was “potent, nanomolar inhibitors”.
Consider `O=P(O)(O)C(NC1CCCCCC1)P(=O)(O)O` [YM 175, Cycloheptylaminomethylene-1,1-bisphosphonic acid], for which the “inhibition of squalene synthase” value in test [1] is recorded as “potent, nanomolar inhibitors”.
Regarding `NCCCC(O)(P(=O)(O)O)P(=O)(O)O` [alendronate, 4-amino-1-hydroxybutylidene-1,1-bisphosphonic acid monosodium trihydrate], in test [2], the bone resorption result was “inhibited” and the osteoclast formation entry is “inhibited”. Also, the “inhibition of squalene synthase” value in test [1] is “comparatively little effect”. Further, the IC50 in test [3] was 168 nM.
For the compound `CC[C@H](C)C(=O)O[C@H]1C[C@@H](C)C=C2C=C[C@H](C)[C@H](CC[C@@H]3C[C@@H](O)CC(=O)O3)[C@H]21` [lovastatin], in test [2], the bone resorption result was “inhibited” and the osteoclast formation result is on record as “inhibited”.
With `NCCC(O)(P(=O)(O)O)P(=O)(O)O` [pamidronate, 3-amino-1-hydroxypropylidene-1,1-bisphosphonic acid], the “inhibition of squalene synthase” value in test [1] is reported as “comparatively little effect”. The IC50 in test [3] is 420 nM.
For `O=P(O)(O)C(O)(Cc1cccnc1)P(=O)(O)O` [risedronate, 1-hydroxy-2-(3-pyridinyl)-ethylidene-1,1-bisphosphonic acid], the “inhibition of geranylgeranyl diphosphate synthase” value in test [4] was “specific nanomolar inhibitors”.
